Measured values published in patent US9234000B2, “Benzylamine derivatives as inhibitors of plasma kallikrein” (KalVista Pharmaceuticals Limited, priority 2011, dated 2016).

Experiments:
Human KLK1 = Human KLK1 (Homo sapiens (Human), UniProt P06870); experiment: Determination of the IC50 for KLK1; assay type: biochemical; conditions: Human KLK1, 37° C., substrate H-DVal-Leu-Arg-AFC; Table 12
Summary of the method: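 IC50 values reflect residual human KLK1 activity, read as initial rate from optical absorbance change at 410 nm. Incubations ran at 37° C with H-DVal-Leu-Arg-AFC as substrate across a compound concentration series.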

physchem = conditions: pH 7
Protocol: Determination of the Kinetic Solubility in Phosphate Buffer
After shaking for approximately 30 seconds the reduction in light transmission of these samples, at 650 nm, was measured (Molecular Devices Spectromax UV/visible spectrophotometer). A second measurement was taken at approximately 30 seconds later.

Human plasma kallikrein = Human plasma kallikrein (Homo sapiens (Human), UniProt P03952); experiment: Determination of the IC50 for plasma kallikrein; assay type: biochemical; conditions: fluorogenic substrate H-DPro-Phe-Arg-AFC, 37° C., read-out: IC50 (human PKal)
Chain of Human plasma kallikrein (P03952 391-638): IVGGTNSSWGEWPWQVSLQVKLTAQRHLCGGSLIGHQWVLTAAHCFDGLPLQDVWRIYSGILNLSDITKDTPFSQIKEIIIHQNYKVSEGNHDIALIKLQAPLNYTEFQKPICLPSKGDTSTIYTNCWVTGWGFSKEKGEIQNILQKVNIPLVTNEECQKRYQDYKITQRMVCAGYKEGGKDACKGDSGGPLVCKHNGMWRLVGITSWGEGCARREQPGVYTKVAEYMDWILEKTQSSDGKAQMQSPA
Chain of Human plasma kallikrein (P03952 20-390 partner): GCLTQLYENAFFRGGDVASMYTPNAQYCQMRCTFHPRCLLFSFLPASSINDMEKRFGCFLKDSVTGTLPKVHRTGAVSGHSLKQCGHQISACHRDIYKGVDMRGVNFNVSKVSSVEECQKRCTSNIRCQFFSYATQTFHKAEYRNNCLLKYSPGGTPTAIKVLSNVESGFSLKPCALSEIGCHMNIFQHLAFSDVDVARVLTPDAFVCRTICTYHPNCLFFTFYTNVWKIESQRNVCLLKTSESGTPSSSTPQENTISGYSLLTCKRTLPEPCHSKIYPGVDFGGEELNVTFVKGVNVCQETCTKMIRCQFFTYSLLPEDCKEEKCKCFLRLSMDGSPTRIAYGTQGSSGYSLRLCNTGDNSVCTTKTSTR
Summary of the method: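 Residual activity (initial rate, absorbance at 410 nm) gave the IC50. Reactions at 37° C combined human plasma kallikrein, substrate H-DPro-Phe-Arg-AFC and a range of inhibitor concentrations.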

Chain of Human KLK1 (P06870 25-262): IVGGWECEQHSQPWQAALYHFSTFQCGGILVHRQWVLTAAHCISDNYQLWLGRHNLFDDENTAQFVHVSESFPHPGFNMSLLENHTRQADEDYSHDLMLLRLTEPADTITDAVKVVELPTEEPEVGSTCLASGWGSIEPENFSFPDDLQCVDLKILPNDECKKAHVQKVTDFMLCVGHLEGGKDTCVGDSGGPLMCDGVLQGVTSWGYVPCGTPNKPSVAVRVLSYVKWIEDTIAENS

Row | Compound | IC50 (Human KLK1) | solubility in PO4 buffer (physchem) | IC50 (Human plasma kallikrein)
1 | CN(C(=O)[C@@H](CC1CCCCC1)NCC(=O)O)[C@@H](Cc1ccccc1)C(=O)NCc1ccc(CN)c(F)c1 [Example 34, ((R)-1-{[(S)-1-(4-Aminomethyl-3-fluoro-benzylcarbamoyl)-2-phenyl-ethyl]-methyl-carbamoyl}-2-cyclohexyl-ethylamino)-acetic acid] | 7.7 µM | > 235 µM | 1400 nM
2 | CCCN[C@H](Cc1ccc(OCC)cc1)C(=O)N(C)[C@@H](Cc1ccccc1)C(=O)NCc1ccc(CN)cc1 [Example 35, (R)-N-[(S)-1-(4-Aminomethyl-benzylcarbamoyl)-2-phenyl-ethyl]-3-(4-ethoxy-phenyl)-N-methyl-2-propylamino-propionamide] | > 10 µM | > 235 µM | 2000 nM
3 | CN(Cc1ccc(CN)cc1)C(=O)[C@H](Cc1ccccc1)NC(=O)[C@@H](CC1CCCCC1)NCC(=O)O [Example 36, ((R)-1-{(S)-1-[(4-Aminomethyl-benzyl)-methyl-carbamoyl]-2-phenyl-ethylcarbamoyl}-2-cyclohexyl-ethylamino)-acetic acid] | > 10 µM | > 235 µM | 8200 nM
4 | CCCN[C@H](CC1CCCCC1)C(=O)N[C@@H](Cc1ccccc1)C(=O)NCc1ccc(CN)cc1 [Example 37, (R)-N-[(S)-1-(4-Aminomethyl-benzylcarbamoyl)-2-phenyl-ethyl]-3-cyclohexyl-2-propylamino-propionamide] | > 10 µM | > 235 µM | 910 nM
5 | CCOc1ccc(C[C@@H](NC(C)=O)C(=O)N(C)[C@@H](Cc2ccccc2)C(=O)NCc2ccc(CN)cc2)cc1 [Example 39, (R)-2-Acetylamino-N-[(S)-1-(4-aminomethyl-benzylcarbamoyl)-2-phenyl-ethyl]-3-(4-ethoxy-phenyl)-N-methyl-propionamide] | > 10 µM | > 235 µM | 310 nM
6 | CN(CC(=O)O)[C@H](CC1CCCCC1)C(=O)N[C@@H](Cc1ccccc1)C(=O)NCc1ccc(CN)c(F)c1 [Example 42, ({(R)-1-[(S)-1-(4-Aminomethyl-3-fluoro-benzylcarbamoyl)-2-phenyl-ethylcarbamoyl]-2-cyclohexyl-ethyl}-methyl-amino)-acetic acid] | > 10 µM | > 235 µM | 530 nM
7 | CCOc1ccc(C[C@@H](NC(=O)C(C)C)C(=O)N(C)[C@@H](Cc2ccccc2)C(=O)NCc2ccc(CN)cc2)cc1 [Example 44, N-[(R)-1-{[(S)-1-(4-Aminomethyl-benzylcarbamoyl)-2-phenyl-ethyl]-methyl-carbamoyl}-2-(4-ethoxy-phenyl)-ethyl]-isobutyramide] | > 10 µM | > 235 µM | 180 nM

Further lines, results first:

Row | IC50 (Human KLK1) | solubility in PO4 buffer (physchem) | IC50 (Human plasma kallikrein) | Compound
8 | > 10 µM | > 235 µM | 1800 nM | CN[C@H](CC1CCCCC1)C(=O)N[C@@H](Cc1ccccc1)C(=O)NCc1ccc(CN)c(F)c1 [Example 40, (R)-N-[(S)-1-(4-Aminomethyl-3-fluoro-benzylcarbamoyl)-2-phenyl-ethyl]-3-cyclohexyl-2-methylamino-propionamide]
9 | 2.5 µM | > 235 µM | 1300 nM | CN[C@H](CC1CCCCC1)C(=O)N[C@@H](Cc1ccc(Cl)c(Cl)c1)C(=O)NCc1ccc(CN)c(F)c1 [Example 41, (R)-N-[(S)-1-(4-Aminomethyl-3-fluoro-benzylcarbamoyl)-2-(3,4-dichloro-phenyl)-ethyl]-3-cyclohexyl-2-methylamino-propionamide]
10 | > 10 µM | > 235 µM | 1300 nM | CN(CC(=O)O)[C@H](CC1CCCCC1)C(=O)N[C@@H](Cc1ccc(Cl)c(Cl)c1)C(=O)NCc1ccc(CN)c(F)c1 [Example 43, ({(R)-1-[(S)-1-(4-Aminomethyl-3-fluoro-benzylcarbamoyl)-2-(3,4-dichloro-phenyl)-ethylcarbamoyl]-2-cyclohexyl-ethyl}-methyl-amino)-acetic acid]
